Measurements as given in patent publication US11396016B2, “System and method for a biomimetic fluid processing” (The Brigham and Women's Hospital, Inc., priority 2013, dated 2022).

Test system: MKs
Assay: Shear-induced proPLT production and PLT release by MKs in the microfluidic device (live-cell microscopy)
Assay type: cell-based, mouse
Conditions: for PLT release: under both static and physiological shear conditions; for shear-induced proPLT production: physiological shear
Method: Devices were coated with a 0.22 μm filtered 10% BSA solution (Millipore, Billerica, Mass.) for 30 minutes to prevent direct cell contact with glass. Primary MKs and media were infused in the first inlet 118 and second inlet 122, respectively, at a rate of 12.5 μL/hour using a two-syringe microfluidic pump (Harvard Apparatus, Holliston, Mass.). When the first outlet 120 is closed, both input solutions are redirected toward the second outlet 124 causing primary MKs to trap.
For shear cultures, MKs were loaded onto ‘naked’ microfluidic devices (only BSA-coated), and the infusion rate was doubled incrementally from 12.5 μL/hr to 200 μL/hr over a 2 hour period. For static cultures, isolated MKs were pipetted into chambers formed by mounting a glass coverslide coated with 3% BSA onto a […] with a 1 cm hole and cultured for 24 hours. Both static and shear cultures were maintained at 37 degrees C. and 5 percent CO2 and examined on a Zeiss Axiovert 200 (Carl Zeiss, Thornwood, N.Y.) equipped with 10× (numerical aperature, 0.30) Plan-Neofluar air objective. Differential interference contrast (DIC) images were obtained using CCD camera (Hamamatsu Photonics, Boston, Mass.) at either 2 second (shear cultures) or 20 minute (static cultures) intervals. Images were analyzed using the Metamorph version 7.7.2.0 image analysis software (Molecular Devices, Sunnyvale, Calif., USA) and ImageJ software version 1.47p. ProPLT extension rates were determined manually for over 200 MKs from at least three independent samples. For PLT spreading experiments, effluent was collected from microfluidic devices after 2 hours and pipetted into uncoated static culture chambers, described above. PLTs were permitted to contact glass by gravity sedimentation and spreading was captured at 5 second intervals over a 5 minute period.
In vivo BM MKs extend proPLTs in the direction of blood flow and release PLTs, proPLTs, large cytoplasmic fragments (prePLTs), and even whole MKs into sinusoidal blood vessels which may be trapping in the pulmonary microvascular bed, or otherwise maturing in the circulation. To determine the effect of physiological shear on PLT production, mouse fetal liver culture-derived (mFLC) MKs were isolated on culture day 4 and characterized by size and ploidy before being infused into the microfluidic device (shown in FIG. 3A).
While shear rates were kept constant, proPLT extension rates varied at different positions along the shaft, predictive of a regulated cytoskeletal driven mechanism of proPLT elongation (shown in FIG. 4C). […]

## CCCCCC[C@@H]([C@@H](C)O)n1cnc2c(N)ncnc21 (racemic) [EHNA]
1 mM EHNA
  PLT release: inhibited
MKs incubated with 1 mM EHNA prior to infusion in microfluidic device
  shear-induced proPLT production: inhibit

## C/C1=C\[C@H](C)C[C@H](C)OC(=O)C[C@H](c2ccc(O)cc2)NC(=O)[C@@H](Cc2c(Br)[nH]c3ccccc23)N(C)C(=O)[C@H](C)NC(=O)[C@@H](C)C1 [Jas, Jasplankinolide]
5 μM Jas
  PLT release: inhibited
MKs incubated with 5 μM Jas prior to infusion in microfluidic device
  shear-induced proPLT production: inhibit
